Measurements as given in patent US20120252804A1, “COMPOSITION AND METHOD FOR CONTROLLING ARTHROPOD PESTS” (SUMITOMO CHEMICAL COMPANY, LIMITED, priority 2009, published 2012).

How the values were obtained:
Format in all cases: in vivo
[1] = test system: Sweetpotato Whitefly (Bemisia tabaci); assay: Test Example 2: pesticidal effect of leaf dipping treatment on Sweetpotato Whitefly; settings: composition of the compound and pyriproxyfen; cabbage leaf disk with eggs dipped 30 seconds, after 8 days; summary of Table 44
[2] = test system: brown planthopper (Nilaparvata lugens); assay: Test Example 1: pesticidal effect against brown planthopper by foliage spray treatment of rice; settings: composition of the compound and pyriproxyfen; foliage spray on rice seedlings, third-instar larvae, after 5 days; summary of Table 43
[3] = test system: brown planthopper (Nilaparvata lugens); assay: Test Example 3: pesticidal effect against brown planthopper by foliage spray treatment of rice; settings: composition of the compound and pyriproxyfen; foliage spray on rice seedlings, third-instar larvae, after 5 days; summary of Table 45
[4] = test system: Sweetpotato Whitefly (Bemisia tabaci); assay: Test Example 4: pesticidal effect of leaf dipping treatment on Sweetpotato Whitefly; settings: composition of the compound and pyriproxyfen; cabbage leaf disk with eggs dipped 30 seconds, after 8 days; summary of Table 46

Compound	pesticidal efficacy on Sweetpotato Whitefly (Bemisia tabaci) [1]	pesticidal efficacy against brown planthopper (Nilaparvata lugens) [2]	pesticidal efficacy against brown planthopper (Nilaparvata lugens) [3]	pesticidal efficacy on Sweetpotato Whitefly (Bemisia tabaci) [4]
FC(F)(F)c1ccc2oc(-c3ccncc3Cl)nc2c1 [Compound 18, 2-(3-chloropyridin-4-yl)-5-(trifluoromethyl)benzoxazole]	high pesticidal efficacy	high pesticidal efficacy		
FC(F)(F)COc1cnccc1-c1nc2cc(C(F)(F)F)ccc2o1 [Compound 39, 2-[3-(2,2,2-trifluoroethyl)oxypyridin-4-yl]-5-(trifluoromethyl)benzoxazole]			high pesticidal efficacy	high pesticidal efficacy
CC(C)Oc1cnccc1-c1nc2cc(C(F)(F)F)ccc2o1 [Compound 70, 2-(3-isopropoxypyridin-4-yl)-5-(trifluoromethyl)benzoxazole]	high pesticidal efficacy	high pesticidal efficacy		
FC(F)(F)Sc1ccc2oc(-c3ccncc3Cl)nc2c1 [Compound 77, 2-(3-chloropyridin-4-yl)-5-(trifluoromethylthio)benzoxazole]	high pesticidal efficacy	high pesticidal efficacy		
CCc1cnccc1-c1nc2cc(OC(F)(F)F)ccc2o1 [Compound 109, 2-(3-ethylpyridin-4-yl)-5-(trifluoromethoxy)benzoxazole]	high pesticidal efficacy	high pesticidal efficacy		
CC(C)COc1cnccc1-c1nc2cc(C(F)(F)F)ccc2o1 [Compound 116, 2-(3-isobutoxypyridin-4-yl)-5-(trifluoromethyl)benzoxazole]			high pesticidal efficacy	high pesticidal efficacy
CC(C)(C)COc1cnccc1-c1nc2cc(C(F)(F)F)ccc2o1 [Compound 117, 2-[3-(2,2-dimethylpropoxy)pyridin-4-yl]-5-(trifluoromethyl)benzoxazole]			high pesticidal efficacy	high pesticidal efficacy
FC(F)(F)c1ccc2oc(-c3ccncc3-c3cccnc3)nc2c1 [Compound 128, 4-(5-trifluoromethyl-benzoxazole-2-yl)-[3,3]bipyridinyl]	high pesticidal efficacy	high pesticidal efficacy		
FC(F)(F)c1cnc2oc(-c3ccncc3Cl)nc2c1 [Compound 139, 2-(3-chloropyridin-4-yl)-6-(trifluoromethyl)oxazolo[5,4-b]pyridine]	high pesticidal efficacy	high pesticidal efficacy		
CCc1cnccc1-c1nc2cc(C(F)(F)F)cnc2o1 [Compound 143, 2-(3-ethylpyridin-4-yl)-6-(trifluoromethyl)oxazolo[5,4-b]pyridine]	high pesticidal efficacy	high pesticidal efficacy		
CSc1cnccc1-c1nc2cc(C(F)(F)F)cnc2o1 [Compound 146, 2-(3-methylthiopyridin-4-yl)-6-(trifluoromethyl)oxazolo[5,4-b]pyridine]	high pesticidal efficacy	high pesticidal efficacy		
FC(F)(F)COc1cnccc1-c1nc2cc(C(F)(F)F)cnc2o1 [Compound 163]			high pesticidal efficacy	high pesticidal efficacy
